The results in this text go back to ChEMBL document CHEMBL1132266, “Synthesis and evaluation of 1-position-modified inositol 1,4,5-trisphosphate analogs” (Bioorg Med Chem Lett, 1999).

The target of the experiment is Inositol 1,4,5-trisphosphate-gated calcium channel ITPR3 (Homo sapiens, UniProt Q14573). The experiment is described as follows: Dissociation constant of compound was measured in IP3-binding domain(IBD) of human Inositol 1,4,5-trisphosphate receptor at pH 7.4.
Inositol 1,4,5-trisphosphate-gated calcium channel ITPR3, sequence (Q14573 whole entry, the tested form may be a part): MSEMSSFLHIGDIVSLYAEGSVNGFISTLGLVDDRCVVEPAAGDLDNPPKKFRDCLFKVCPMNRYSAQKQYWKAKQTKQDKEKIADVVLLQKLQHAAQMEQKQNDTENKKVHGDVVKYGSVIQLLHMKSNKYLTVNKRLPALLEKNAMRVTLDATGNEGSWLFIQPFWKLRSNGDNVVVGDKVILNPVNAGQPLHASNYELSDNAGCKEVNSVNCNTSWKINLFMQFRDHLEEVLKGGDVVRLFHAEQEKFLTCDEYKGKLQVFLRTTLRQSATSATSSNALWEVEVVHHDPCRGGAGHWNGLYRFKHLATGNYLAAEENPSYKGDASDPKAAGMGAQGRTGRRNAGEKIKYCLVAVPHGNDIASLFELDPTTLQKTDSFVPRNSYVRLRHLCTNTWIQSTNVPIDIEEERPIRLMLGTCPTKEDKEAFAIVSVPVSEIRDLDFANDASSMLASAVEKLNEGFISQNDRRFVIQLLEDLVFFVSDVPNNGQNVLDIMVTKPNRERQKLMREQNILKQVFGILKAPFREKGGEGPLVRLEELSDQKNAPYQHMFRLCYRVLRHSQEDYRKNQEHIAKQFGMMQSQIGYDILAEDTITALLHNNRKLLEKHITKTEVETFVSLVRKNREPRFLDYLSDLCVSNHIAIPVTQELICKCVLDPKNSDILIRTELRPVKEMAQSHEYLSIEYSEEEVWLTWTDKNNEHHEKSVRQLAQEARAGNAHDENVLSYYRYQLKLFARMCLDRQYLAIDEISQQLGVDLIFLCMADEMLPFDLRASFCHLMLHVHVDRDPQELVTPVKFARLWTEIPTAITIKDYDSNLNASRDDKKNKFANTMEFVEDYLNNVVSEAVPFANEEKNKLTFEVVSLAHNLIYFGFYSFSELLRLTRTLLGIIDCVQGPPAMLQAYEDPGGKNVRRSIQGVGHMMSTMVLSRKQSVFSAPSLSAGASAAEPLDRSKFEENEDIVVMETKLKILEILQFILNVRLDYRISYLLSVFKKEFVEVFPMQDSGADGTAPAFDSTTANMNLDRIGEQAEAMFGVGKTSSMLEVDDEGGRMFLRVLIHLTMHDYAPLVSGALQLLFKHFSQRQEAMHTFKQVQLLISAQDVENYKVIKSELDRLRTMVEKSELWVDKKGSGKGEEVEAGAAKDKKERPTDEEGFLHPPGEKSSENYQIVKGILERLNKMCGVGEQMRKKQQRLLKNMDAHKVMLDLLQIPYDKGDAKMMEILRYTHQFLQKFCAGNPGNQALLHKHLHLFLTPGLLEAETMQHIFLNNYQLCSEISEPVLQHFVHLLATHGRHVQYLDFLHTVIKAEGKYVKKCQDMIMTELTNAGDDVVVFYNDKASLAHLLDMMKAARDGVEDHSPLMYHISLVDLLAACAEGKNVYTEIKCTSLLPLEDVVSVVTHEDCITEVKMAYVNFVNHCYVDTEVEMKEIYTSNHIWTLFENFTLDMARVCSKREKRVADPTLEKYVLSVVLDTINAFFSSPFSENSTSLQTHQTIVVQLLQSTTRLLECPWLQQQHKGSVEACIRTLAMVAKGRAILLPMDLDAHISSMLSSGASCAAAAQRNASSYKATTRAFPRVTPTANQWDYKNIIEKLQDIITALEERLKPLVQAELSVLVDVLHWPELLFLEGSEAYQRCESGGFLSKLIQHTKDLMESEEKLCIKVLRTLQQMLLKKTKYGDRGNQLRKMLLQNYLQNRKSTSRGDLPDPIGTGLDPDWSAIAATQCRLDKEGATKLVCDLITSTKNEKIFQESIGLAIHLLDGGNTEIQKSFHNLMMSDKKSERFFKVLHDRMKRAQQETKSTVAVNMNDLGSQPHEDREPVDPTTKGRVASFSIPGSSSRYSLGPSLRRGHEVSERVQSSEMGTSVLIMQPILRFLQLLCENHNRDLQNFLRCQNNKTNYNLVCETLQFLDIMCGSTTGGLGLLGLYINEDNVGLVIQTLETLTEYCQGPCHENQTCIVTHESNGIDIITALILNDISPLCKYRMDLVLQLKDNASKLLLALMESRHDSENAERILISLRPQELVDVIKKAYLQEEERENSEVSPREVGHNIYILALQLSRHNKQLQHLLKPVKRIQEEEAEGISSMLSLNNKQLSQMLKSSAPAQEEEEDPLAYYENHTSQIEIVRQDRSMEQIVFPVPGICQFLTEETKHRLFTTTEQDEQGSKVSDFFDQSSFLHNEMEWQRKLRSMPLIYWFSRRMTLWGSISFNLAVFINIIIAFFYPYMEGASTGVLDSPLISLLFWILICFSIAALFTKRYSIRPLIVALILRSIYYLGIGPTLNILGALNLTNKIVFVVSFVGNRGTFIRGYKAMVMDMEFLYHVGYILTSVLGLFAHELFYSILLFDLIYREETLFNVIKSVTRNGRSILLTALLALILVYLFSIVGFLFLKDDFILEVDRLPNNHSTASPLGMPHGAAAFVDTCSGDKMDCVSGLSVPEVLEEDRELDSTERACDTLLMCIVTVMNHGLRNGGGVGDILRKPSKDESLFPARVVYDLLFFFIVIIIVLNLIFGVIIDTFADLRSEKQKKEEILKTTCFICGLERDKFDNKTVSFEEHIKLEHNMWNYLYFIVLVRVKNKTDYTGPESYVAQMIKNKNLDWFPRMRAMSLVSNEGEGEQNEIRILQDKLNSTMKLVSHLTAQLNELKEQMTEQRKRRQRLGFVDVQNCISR
As to `NCCCOP(=O)(O)O[C@@H]1[C@H](O)[C@H](O)[C@@H](OP(=O)(O)O)[C@H](OP(=O)(O)O)[C@H]1O`, the Kd stood at 1120 nM. On to `CN(C)c1ccc(C(=C2C=CC(=[N+](C)C)C=C2)c2ccc(C(=O)NCCCOP(=O)(O)O[C@@H]3[C@H](O)[C@H](O)[C@@H](OP(=O)(O)O)[C@H](OP(=O)(O)O)[C@H]3O)cc2)cc1`, for which the Kd was 1.17 nM. The figure for `O=C(NCCCOP(=O)(O)O[C@@H]1[C@H](O)[C@H](O)[C@@H](OP(=O)(O)O)[C@H](OP(=O)(O)O)[C@H]1O)Oc1ccc2c(c1)Oc1cc(O)ccc1C21OC(=O)c2ccccc21` (stereo partly drawn) is 188 nM.

The term Kd denotes the concentration at which binding is half-saturated.
